Reference: patent US10053428B2, “5-aminotetrahydroquinoline-2-carboxylic acids and their use” (BAYER PHARMA AKTIENGESELLSCHAFT, priority 2012, dated 2018)

These compounds were tested on recombinant guanylate cyclase reporter cell line (assay: sGC-activating activity in the CHO reporter cell in vitro). Details: read-out: MEC (minimum effective concentration).
Type: cell-based
Protocol: B-2. Action at a Recombinant Guanylate Cyclase Reporter Cell Line
The cellular action of the compounds according to the invention is determined at a recombinant guanylate cyclase reporter cell line, as described in F. Wunder et al., Anal. Biochem. 32, 104-112 (2005).
Work on `O=C(O)c1ccc(CCN(CCc2cc(F)ccc2OCc2ccc(-c3nc4cc(Cl)ccc4o3)cc2)C2CCCc3nc(C(=O)O)ccc32)cc1` (single isomer, unassigned) [Example 35] yielded a minimal effective concentration of 3 nM. In the case of `O=C(O)CCCCN(CCc1cc(F)ccc1OCc1ccc(-c2nc3cc(Cl)ccc3o2)cc1)C1CCCc2nc(C(=O)O)ccc21` (single isomer, unassigned) [Example 36], the minimal effective concentration is reported as 30 nM. In the case of `O=C(O)CCCCN(CCc1cc(F)ccc1OCc1ccc(-c2nc3cc(Cl)ccc3o2)cc1)C1CCCc2nc(C(=O)O)ccc21` (single isomer, unassigned) [Example 37], the minimal effective concentration is reported as 1 nM. Work on `O=C(O)c1ccc(CCN(CCc2cc(F)ccc2OCc2ccc(CCc3ccc(F)cc3)cc2)C2CCCc3nc(C(=O)O)ccc32)cc1` (single isomer, unassigned) [Example 42] yielded a minimal effective concentration of 3 nM. `O=C(O)c1ccc(CCN(CCc2ccccc2OCc2ccc(-c3nc4cc(Cl)ccc4o3)cc2)C2CCCc3nc(C(=O)O)ccc32)cc1` (single isomer, unassigned; enantiomer 1) [Example 19, 5-{[2-(4-Carboxyphenyl)ethyl][2-(2-{[4-(5-chloro-1,3-benzoxazol-2-yl)benzyl]oxy}phenyl)ethyl]-amino}-5,6,7,8-tetrahydroquinoline-2-carboxylic acid (Enantiomer 1)] showed a minimal effective concentration of 30 nM. Compound `O=C(O)c1ccc(CCN(CCc2ccccc2OCc2ccc(-c3nc4cc(Cl)ccc4o3)cc2)C2CCCc3nc(C(=O)O)ccc32)cc1` (single isomer, unassigned; enantiomer 2) [Example 20, 5-{[2-(4-Carboxyphenyl)ethyl][2-(2-{[4-(5-chloro-1,3-benzoxazol-2-yl)benzyl]oxy}phenyl)ethyl]-amino}-5,6,7,8-tetrahydroquinoline-2-carboxylic acid (Enantiomer 2)] has a minimal effective concentration of 3 nM. `O=C(O)c1ccc(CCN(CCc2ccccc2OCc2ccc(CCc3ccccc3)cc2)C2CCCc3nc(C(=O)O)ccc32)cc1` (single isomer, unassigned; enantiomer 2) [Example 38, 5-{[2-(4-Carboxyphenyl)ethyl][2-(2-{[4-(2-phenylethyl)benzyl]oxy}phenyl)ethyl]amino}-5,6,7,8-tetrahydroquinoline-2-carboxylic acid (Enantiomer 2)] showed a minimal effective concentration of 0.3 nM. `O=C(O)c1ccc(CCN(CCc2cc(F)ccc2OCc2ccc(CCc3ccc(F)cc3)cc2)C2CCCc3nc(C(=O)O)ccc32)cc1` (single isomer, unassigned; enantiomer 2) [Example 43, 5-([2-(4-Carboxyphenyl)ethyl]{2-[5-fluoro-2-({4-[2-(4-fluorophenyl)ethyl]benzyl}oxy)phenyl]-ethyl}amino)-5,6,7,8-tetrahydroquinoline-2-carboxylic acid (Enantiomer 2)] gave a minimal effective concentration of 0.3 nM. `CCC(=O)N1CCC(c2ccc(COc3ccccc3CCN(CCCCC(=O)O)C3CCCc4nc(C(=O)O)ccc43)cc2)CC1` (stereo not shown) [Example 5] was tested, and the minimal effective concentration was 100 nM. Work on `O=C(O)CCCCN(CCc1ccccc1OCc1ccc([C@H]2CC[C@H](C(F)(F)F)CC2)cc1)C1CCCc2nc(C(=O)O)ccc21` (stereo partly shown) [Example 11] yielded a minimal effective concentration of 0.3 nM.
